{"source": "patent CN109456950A", "about": "“一种环糊精葡萄糖基转移酶的突变体及其应用” (priority 2018, dated 2019)", "assay_type_in_all_cases": "biochemical", "key": {"[1]": {"biological_target": "T1, Bacillus circulans cyclodextrin glycosyltransferase (CGTase) variant M234I, Met234Ile of parent SEQ ID NO.2 [来源于环状芽孢杆菌(B.circulans)的环糊精葡萄糖基转移酶, M234I] (Niallia circulans, UniProt P43379, M261I)", "T1 construct": "made in house; host or cells: E. coli BL21(DE3), pET-20b(+), fermentation supernatant (crude enzyme)", "T1 sequence (P43379 28-713 M261I)": "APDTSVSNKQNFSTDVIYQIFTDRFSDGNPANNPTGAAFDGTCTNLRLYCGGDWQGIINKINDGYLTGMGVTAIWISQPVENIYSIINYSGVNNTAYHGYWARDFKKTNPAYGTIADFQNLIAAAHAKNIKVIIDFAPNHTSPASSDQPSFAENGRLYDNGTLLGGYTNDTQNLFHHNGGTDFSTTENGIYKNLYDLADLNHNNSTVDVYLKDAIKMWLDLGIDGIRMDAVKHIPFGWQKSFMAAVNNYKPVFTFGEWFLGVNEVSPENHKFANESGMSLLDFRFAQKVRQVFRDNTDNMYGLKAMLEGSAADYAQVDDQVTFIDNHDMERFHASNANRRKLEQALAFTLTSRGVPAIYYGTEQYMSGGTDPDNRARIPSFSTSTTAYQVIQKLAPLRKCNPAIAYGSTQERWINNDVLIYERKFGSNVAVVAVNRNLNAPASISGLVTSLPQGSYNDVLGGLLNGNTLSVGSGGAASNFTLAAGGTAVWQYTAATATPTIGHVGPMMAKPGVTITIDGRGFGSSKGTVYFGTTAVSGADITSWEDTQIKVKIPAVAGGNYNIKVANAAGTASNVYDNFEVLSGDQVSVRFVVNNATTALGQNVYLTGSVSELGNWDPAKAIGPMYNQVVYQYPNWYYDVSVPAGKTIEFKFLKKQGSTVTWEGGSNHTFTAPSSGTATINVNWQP", "test": "Acceptor affinity for maltose (Km) in the disproportionation reaction, M234I", "conditions": "M234I vs wild type, EPS as donor, pH 5.5, 50℃, affinity expressed by Km"}, "[2]": {"biological_target": "Bacillus circulans cyclodextrin glycosyltransferase (CGTase) variant M234A, Met234Ala of parent SEQ ID NO.2 [来源于环状芽孢杆菌(B.circulans)的环糊精葡萄糖基转移酶, M234A] (Niallia circulans, UniProt P43379, M261A)", "sequence (P43379 whole entry M261A)": "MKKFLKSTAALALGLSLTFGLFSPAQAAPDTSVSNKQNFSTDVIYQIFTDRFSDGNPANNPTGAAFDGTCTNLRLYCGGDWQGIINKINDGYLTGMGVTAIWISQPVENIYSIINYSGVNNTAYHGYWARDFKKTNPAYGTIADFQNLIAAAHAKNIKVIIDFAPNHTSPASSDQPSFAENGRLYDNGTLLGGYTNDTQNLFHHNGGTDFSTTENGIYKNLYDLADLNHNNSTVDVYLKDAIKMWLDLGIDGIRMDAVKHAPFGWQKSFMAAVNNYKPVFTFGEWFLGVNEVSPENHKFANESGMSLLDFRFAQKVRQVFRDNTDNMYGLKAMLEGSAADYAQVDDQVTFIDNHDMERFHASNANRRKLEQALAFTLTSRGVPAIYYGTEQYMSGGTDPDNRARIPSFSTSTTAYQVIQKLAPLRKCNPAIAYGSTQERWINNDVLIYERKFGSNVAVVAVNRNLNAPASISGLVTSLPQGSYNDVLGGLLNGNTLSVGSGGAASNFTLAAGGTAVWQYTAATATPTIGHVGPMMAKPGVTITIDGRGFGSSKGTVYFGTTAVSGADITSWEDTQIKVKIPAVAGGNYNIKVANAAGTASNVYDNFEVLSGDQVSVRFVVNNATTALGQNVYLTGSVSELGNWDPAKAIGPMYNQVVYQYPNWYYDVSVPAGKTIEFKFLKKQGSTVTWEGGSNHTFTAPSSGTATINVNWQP", "test": "Acceptor affinity for maltose (Km) in the disproportionation reaction, M234A", "conditions": "M234A vs wild type, EPS as donor, pH 5.5, 50℃, affinity expressed by Km"}, "[3]": {"biological_target": "Bacillus circulans cyclodextrin glycosyltransferase (CGTase) variant M234L, Met234Leu of parent SEQ ID NO.2 [来源于环状芽孢杆菌(B.circulans)的环糊精葡萄糖基转移酶, M234L] (Niallia circulans, UniProt P43379, M261L)", "sequence (P43379 whole entry M261L)": "as the sequence (P43379 whole entry M261A) above, with A261L counted along it", "test": "Acceptor affinity for maltose (Km) in the disproportionation reaction, M234L", "conditions": "M234L vs wild type, EPS as donor, pH 5.5, 50℃, affinity expressed by Km"}, "[4]": {"biological_target": "T2, Bacillus circulans cyclodextrin glycosyltransferase (CGTase) variant M234V, Met234Val of parent SEQ ID NO.2 [来源于环状芽孢杆菌(B.circulans)的环糊精葡萄糖基转移酶, M234V] (Niallia circulans, UniProt P43379, M261V)", "T2 construct": "made in house; host or cells: E. coli BL21(DE3), pET-20b(+), fermentation supernatant (crude enzyme)", "T2 sequence (P43379 28-713 M261V)": "as the sequence (P43379 28-713 M261I) above, with I234V counted along it", "test": "Acceptor affinity for maltose (Km) in the disproportionation reaction, M234V", "conditions": "M234V vs wild type, EPS as donor, pH 5.5, 50℃, affinity expressed by Km"}}, "data": [{"smiles": "OCC1OC(OC2C(CO)OC(O)C(O)C2O)C(O)C(O)C1O", "note": "(stereo not shown) [麦芽糖]", "values": [{"measurement": "increase in acceptor affinity for maltose compared with wild type", "setting": "[1]", "value": 45.6, "unit": "%"}, {"measurement": "increase in acceptor affinity for maltose compared with wild type", "setting": "[2]", "value": 34.7, "unit": "%"}, {"measurement": "increase in acceptor affinity for maltose compared with wild type", "setting": "[3]", "value": 30.3, "unit": "%"}, {"measurement": "increase in acceptor affinity for maltose compared with wild type", "setting": "[4]", "value": 36.9, "unit": "%"}]}]}
